# pKi: −log10 of the molar value. Read-outs that look alike come from different tables or passages of the source.
# Assays:
# Plasmin = target: T1, Plasmin (Homo sapiens, UniProt P00747); experiment: In vitro inhibition of serine proteases: plasmin; format: biochemical
# T1 construct: uPA mediates the proteolytic cleavage of plasminogen to give plasmin
# Procedure: (§1) Ki values were determined according to Dixon by linear regression using a computer program.
# Glandular kallikrein = Glandular kallikrein (Homo sapiens, UniProt P06870); experiment: In vitro inhibition of serine proteases: glandular kallikrein; format: biochemical
# Sequence of Glandular kallikrein (P06870 25-262): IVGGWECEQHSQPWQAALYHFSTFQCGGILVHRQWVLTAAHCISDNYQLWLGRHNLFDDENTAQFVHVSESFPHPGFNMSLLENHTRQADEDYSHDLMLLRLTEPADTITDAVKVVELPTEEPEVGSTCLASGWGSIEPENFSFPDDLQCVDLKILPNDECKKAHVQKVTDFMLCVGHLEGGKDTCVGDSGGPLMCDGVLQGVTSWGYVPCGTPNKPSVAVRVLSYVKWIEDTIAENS
# Procedure: as §1
# [1] = system: BN-472 rat mammary carcinoma; experiment: BN-472 rat mammary carcinoma model, single agent and combination with cytotoxics (Example 11)
# Procedure: WX-UK1 was dissolved in 5% w/v of D-mannitol to the appropriate dosage and administered once daily or twice weekly either subcutaneously (s.c.) or intraperitonally (i.p.).
# Epirubicin (0.75-3 mg/kg body wight), paclitaxel (5-7.5 mg/kg) or 5-FU (20 and 40 mg/kg) was given once weekly by i.v. injection into the external jugular vein.
# Control rats received the vehicle 5% w/v of D-mannitol once daily s.c.
# A donor rat bearing a tumor of 20×20 mm was sacrificed, the tumor harvested ant the cortex part was sliced into cubes of approximately 10 mm^3 and the transplated orthotopically under the mammary fad pads of female Brown Norway rats.
# Treatment was started three or six days (5-FU experiment) after tumor inoculation. Each treatment group consisted of 15 to 21 rats.
# Tumor load is plotted as the average±standard error of the mean (SEM).
# Tumor, organ weights as well as lung foci counts are presented in Box-Whisker graphs. […] Whiskers extend to the extreme lower 5th and upper 95th percentiles of values. Dots represent individual data.
# P-values represent significance levels of pairwise comparisons of treatment groups versus vehicle control. For combination therapy experiments the P-values for the comparison of a cytostatic mono-therapy versus the combination therapy is given.
# [2] = system: human breast carcinoma cells (MDA-BA-231); experiment: Human breast cancer cells in nude mice; format: in vivo, Balb/c nude mice; details: 1.2 mg/kg i.p. twice a week, vs control (FIG. 6)
# Procedure: In order to test the in vivo efficacy of the inhibitor for inhibiting tumor growth of human breast carcinoma cells (MDA-BA-231), 6×10^6 cells were injected subcutaneously into the right flank of Balb/c nude mice (4-6 weeks old). The tumor cells were preincubated with the synthetic uPA inhibitor prior to inoculation. After 24 h, the mice were treated twice a week intraperitoneally with a dose of 1.2 mg/kg body weight as described under A). The tumor size was determined weekly by measuring the two largest diameters.
# Urokinase (sc-urokinase) = target: T2, Urokinase (sc-urokinase) (Homo sapiens, UniProt P00749); experiment: In vitro inhibition of urokinase (chromogenic substrate, Dixon Ki); format: biochemical
# T2 construct: purchased Ribosepharm GmbH, Haan, Germany
# Procedure: To determine the inhibitory activity, 200 μl of Tris buffer (0.05 mol/l, containing the inhibitor, 0.154 mol/l NaCl, 5% ethanol pH 8.0), 25 μl of substrate (Pefachrome UK or Bz-βAla-Gly-Arg-pNA in H2O; Pentapharm Ltd., Basle, Switzerland) and 50 μl of sc-urokinase (Ribosepharm GmbH, Haan, Germany) were incubated at 25° C. After 3 min the reaction was stopped by adding 25 μl of acetic acid (50%), and the absorption at 405 nm was determined by means of a Microplate Reader (MR 5000, Dynatech, Denkendorf, Germany). Ki values were determined according to Dixon by linear regression using a computer program. The Ki values are the mean values of at least three determinations with a standard deviation of less than 25%.
# rat breast tumor BN472 = experiment: BN472 rat breast tumor model, metastatic lung foci (Example 10); format: in vivo
# Excerpt: In detail, the syngeneic transplantable spontaneously metastasizing rat breast tumor BN472 was used as a model. BN-472 transplantable rat mammary carcinoma used in this study was originally found spontaneously developed in a retired breeder female Brown Norway rat (Kort et al. J. Nat. Cancer Inst. 1984, 72: 7709-7713). The data presented here focus on the reduction in the number of metastatic lung foci as endpoint.
# FIG. 7 depicts the anti-metastatic efficacy of WX-UK1 in a setting implying surgical resection of the orthotopically growing tumor at a defined size and various time points of therapy onset relative to resection. After orthotopic implantation of BN472 fragment under the mammary fat pad the primary tumors were allowed to grow to a fixed palpable size (4×4 mm). The treatments groups (n=18) were allocated in a way to ensure homogeneous group composition with respect to tumor residence periods (range 3-14 d) prior group allocation. Primary tumors were surgically removed 4 days after having reached the fixed size. Onsets of treatments with 0.3 mg/kg s.c. daily were group specifically either on the day of reaching the fixed size (PO)mor four (P4), eight (P8), or twelve (P112) days thereafter. […] Starting on day 3 after tumor inoculation treatment groups (n=15) received WX-UK1 at weekly doses of […] either by daily application of 0.3 mg/kg (0.3 mg/kg o.d.), by application of 1 mg/kg twice per week (1 mg/kg t.w.) or by dosing 2 mg/kg once per week (2 mg/kg o.w.). The anti-metastatic efficacy previously established with daily treatments was retained when WX-UK1 was administered only twice or once per week at the same weekly dose.
# Treatment was initiated on day 3 after tumor inoculation. b) Groups of rats (n=8) were treated with 5-FU at 20 or 40 mg/kg i.v. once weekly either as mono-therapy or in combination with WX-UK1 i.p. treatments at 1 mg/kg twice weekly or with WX-UK1 alone. Indeed, WX-UK1 was efficacious at reducing lung foci numbers when combined with these standard therapeutics.
# [3] = Solubility in Tris buffer; details: Tris buffer (pH 7.3)
# [4] = system: pancreatic adenocarcinoma CA20948; experiment: Pancreatic carcinoma model in rats; format: in vivo, rat; details: for mass of the tumor-containing pancreas, reduced by % / masses of the subcutaneous tumors, reduced by %: vs vehicle-treated group
# Procedure: Fragments of the transplantable and metastasizing pancreatic adenocarcinoma CA20948 from rats were explanted from donor animals. After cell isolation, equal amounts of suspended tumor cells together with 2 mg of Matrigel were subcutaneously implanted into each of the acceptor animals, male 10 week-old Lewis rats (n=9). The treatment procedure and also the composition of the therapy groups were the same as under A).
# The experiments described in sections A and B were repeated with the inhibitor administered in a different way. For this, the inhibitor was administered subcutaneously in the breast carcinoma model (n=9) and intraperitoneally in the pancreatic adenocarcinoma model (n=8) without changing the daily dose. The results of these repeat experiments corresponded to the results already discussed, both in tendency and extent.
# Trypsin = target: T3, Trypsin (Bos taurus, UniProt P00760); experiment: In vitro inhibition of serine proteases: trypsin; format: biochemical
# T3 construct: gene PRSS1
# T3 sequence (P00760 24-246): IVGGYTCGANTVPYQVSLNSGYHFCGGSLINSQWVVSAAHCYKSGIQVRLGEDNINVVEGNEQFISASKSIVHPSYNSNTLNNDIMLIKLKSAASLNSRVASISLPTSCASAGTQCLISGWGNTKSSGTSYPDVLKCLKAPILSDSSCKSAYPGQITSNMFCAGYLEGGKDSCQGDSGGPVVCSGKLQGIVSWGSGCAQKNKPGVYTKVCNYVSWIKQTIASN
# Procedure: as §1
# [5] = 1 mg/kg daily, vs naphthyl derivative and control (FIG. 5)
# T1 sequence (P00747 581-810 limits assumed, species assumed): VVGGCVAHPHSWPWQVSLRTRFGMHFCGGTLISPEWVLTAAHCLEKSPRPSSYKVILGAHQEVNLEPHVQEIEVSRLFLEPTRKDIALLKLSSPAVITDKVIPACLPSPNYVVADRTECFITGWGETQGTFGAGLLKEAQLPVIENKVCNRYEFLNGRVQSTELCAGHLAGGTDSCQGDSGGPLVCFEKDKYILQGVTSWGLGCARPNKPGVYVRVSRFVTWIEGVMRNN
# T1 sequence (P00747 97-580 partner limits assumed, species assumed): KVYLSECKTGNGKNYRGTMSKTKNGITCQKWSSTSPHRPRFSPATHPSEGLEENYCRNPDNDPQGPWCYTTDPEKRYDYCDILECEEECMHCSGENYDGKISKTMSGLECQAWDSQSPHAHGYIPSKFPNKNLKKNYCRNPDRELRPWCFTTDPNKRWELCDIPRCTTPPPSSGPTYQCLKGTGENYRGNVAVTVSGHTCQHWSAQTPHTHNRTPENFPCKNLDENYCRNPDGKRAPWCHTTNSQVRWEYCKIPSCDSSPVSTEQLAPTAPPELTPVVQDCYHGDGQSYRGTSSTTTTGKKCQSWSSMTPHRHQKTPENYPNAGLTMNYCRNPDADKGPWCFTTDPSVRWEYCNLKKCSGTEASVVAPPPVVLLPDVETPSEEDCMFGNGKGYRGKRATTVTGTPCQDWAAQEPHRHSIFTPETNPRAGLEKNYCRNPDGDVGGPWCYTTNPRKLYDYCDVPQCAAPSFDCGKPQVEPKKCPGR
smiles,measurement,setting,value
"CCOC(=O)N1CCN(C(=O)[C@H](Cc2cccc(C(=N)N)c2)NS(=O)(=O)c2c(C(C)C)cc(C(C)C)cc2C(C)C)CC1.Cl [uPA inhibitor, Nα-2,4,6-Triisopropylphenylsulfonyl-(L)-3-amidinophenylalanine 4-ethoxycarbonylpiperazide hydrochloride]",pKi,Plasmin,6.41
same,pKi,Glandular kallikrein,< 3.00
same,"anti-metastatic effects in combination therapies (lymph nodes weight, macroscopic lung foci number)",[1]; WX-UK1 and the cytostatic agents,additional anti-metastatic effects
same,anti-metastatic effects in combination,[1]; combined with either epirubicin and in particular with 5-FU,statistically significant additive anti-metastatic effects
same,number of macroscopically detectable lung foci,[1]; compared with 5-FU,equally effective
same,number of macroscopically detectable lung foci,[1]; compared with epirubicin or paclitaxel,more effectively reduced
same,"anti-tumor effects (tumor size development, final tumor weight)",[1]; daily administration,Dose-dependent anti-tumor effects
same,metastatic endpoints in combination,"[1]; plus epirubicin, paclitaxel or 5-FU",tended to provide additive benefits
same,reducing lymphogenic spread as determined by lymph-node weight,"[1]; single agent, compared with epirubicin, paclitaxel or 5-FU alone",more or similarly active
same,tumor volume increase,[2],significantly more slowly
same,pKi,"Urokinase (sc-urokinase); in vitro inhibition of urokinase, 25° C, pH 8.0, 5% ethanol, read-out: Ki",6.39
same,pKi,Urokinase (sc-urokinase); read-out: Ki Urokinase,6.39
same,anti-metastatic activity with surgical resection of the primary tumor,"rat breast tumor BN472; 0.3 mg/kg s.c. daily, various onsets relative to resection (FIG. 7)",Anti-metastatic activity was obvious
same,anti-metastatic efficacy at prolonged dosing intervals,rat breast tumor BN472; 1 mg/kg twice per week or 2 mg/kg once per week vs 0.3 mg/kg daily (FIG. 8),retained
same,reducing lung foci numbers in combination,rat breast tumor BN472; combined with epirubicin or 5-FU (FIG. 9),efficacious
same,solubility,[3]; addition of 5% DMSO,10^−3 mol/l
same,solubility,[3]; addition of 5% ethanol,2×10^−4 moll
same,growth of developing rat pancreatic carcinomas,[4]; [5],decrease
same,tumor weight,[4]; [5],significant reduction
same,"number of detected liver foci, % compared to vehicle-treated control","[4]; i.p., 1 mg/kg daily",29%
same,"mass of the tumor-containing pancreas, reduced by %","[4]; i.p., 1 mg/kg daily",76%
same,"masses of the subcutaneous tumors, reduced by %","[4]; i.p., 1 mg/kg daily",54%
same,number of metastatic liver foci,"[4]; rat pancreatic cancer model, vs vehicle-treated controls",substantially reduced
same,"number of detected liver foci, % compared to vehicle-treated control","[4]; s.c., 1 mg/kg daily",2%
same,"mass of the tumor-containing pancreas, reduced by %","[4]; s.c., 1 mg/kg daily",34%
same,"masses of the subcutaneous tumors, reduced by %","[4]; s.c., 1 mg/kg daily",60%
same,pKi,Trypsin,7.43

# Source: patent US7342018B2, “Urokinase inhibitors and uses thereof” (Wilex AG, priority 1998, dated 2008)
